Earlier results, collected in patent US20250066696A1, “A STABLE BLEACH COMPOSITION” (Conopco Inc., d/b/a UNILEVER, priority 2021, published 2025).

pKa: 5.23
SMILES: CCCCC(C)CCC(=O)O (stereo not shown) [4-methyl octanoic acid]
